Measured values taken from ChEMBL document CHEMBL4385648 (Bioorg Med Chem, 2019).

Columns and labels:
Neuraminidase = Neuraminidase (Influenza A virus, UniProt B4URF0); experiment: Inhibition of Influenza A virus (A/Anhui/1/2013 (H7N9) neuraminidase expressed by HEK293 cells incubated for 1 hr using 4-MU-NANA substrate by spectrofluorometric assay; format: cell-based
[1] = Inhibition of Influenza A virus (A/Babol/36/2005 (H3N2) neuraminidase expressed by HEK293 cells incubated for 1 hr using 4-MU-NANA substrate by spectrofluorometric assay; format: cell-based

Structure (SMILES): CC(=O)C1=C(O)C(C)(C)C(O)=C(CC2=C(O)C(C)(C)C(O)=C(C(C)=O)C2=O)C1=O
- IC50 (Neuraminidase; hek293): Not Active
- IC50 [1]: Not Active

Structure (SMILES): CCCC(=O)c1c(O)c(C=O)c(O)c(Cc2c(O)c(C=O)c(O)c(C(=O)CCC)c2O)c1O
- IC50 (Neuraminidase; read-out: IC50): 2.5 µM
- IC50 ([1]; read-out: IC50): 9.8 µM

Structure (SMILES): CCCC(=O)c1c(O)c(CC2=C(O)C(C)(C)C(O)=C(C(C)=O)C2=O)c(O)c(Cc2c(O)c(CC3=C(O)C(C)(C)C(O)=C(C(C)=O)C3=O)c(O)c(C(=O)CCC)c2O)c1O
- IC50 (Neuraminidase; read-out: IC50): 3.6 µM
- IC50 ([1]; read-out: IC50): 36.1 µM

Structure (SMILES): CCOC(=O)C1=C[C@@H](OC(CC)CC)[C@H](NC(C)=O)[C@@H](N)C1 [OSELTAMIVIR]
- IC50 ([1]; read-out: IC50): 0.1 µM

Structure (SMILES): CCCC(=O)c1c(O)cc(O)c(CC2=C(O)C(C)(C)C(O)=C(C(C)=O)C2=O)c1O
- IC50 (Neuraminidase; read-out: IC50): 1.6 µM
- IC50 ([1]; read-out: IC50): 5.6 µM
